According to patent US8378098B2, “Imidazol[1,2-α]quinoxalines and derivatives for the treatment of cancers” (Universite de Montpellier I, priority 2007, dated 2013):
“Also recorded” adds a separate entry of the source. Where two headings read alike, the source gives them in different places.

Legend:
[1] = test system: A375 melanoma; experiment: in vitro cytotoxicity (antiproliferative activity) on A375 melanoma line; format: cell-based, human; details: for IC50: Homo sapiens, A-375
Excerpt: Antiproliferative activity was first measured on a cancer cell line of human origin, A375 melanoma.
Imiquimod and fotemustine (Muphoran®) are used as controls in this study.
(§1) Several human carcinoma cell lines were used: • Lines A375, M4Be, RPMI7591 from human melanoma. • Line LS174T from colon carcinoma. • Line A 2780 from ovarian carcinoma. • The Raji line from B lymphoma. • Line MCF7 from breast carcinoma.
IC50 (concentration of the product tested which inhibits 50% of the maximum cell proliferation observed in the control wells) is determined graphically from the curve of the percentage of cell proliferation as a function of concentration of the product tested.

[2] = test system: M4Be (melanoma); experiment: in vitro cytotoxicity on M4Be melanoma line; format: cell-based; details: Homo sapiens, Table 2, unit inferred, read-out: IC50 M4Be
Excerpt: as §1

[3] = test system: MCF7 (breast cancer); experiment: in vitro cytotoxicity on MCF7 breast cancer line; format: cell-based; details: Homo sapiens, Table 2, unit inferred
Excerpt: as §1

[4] = test system: LS174T (colon cancer); experiment: in vitro cytotoxicity on LS174T colon cancer line; format: cell-based; details: Homo sapiens, Table 2, unit inferred
Excerpt: as §1

[5] = test system: Raji (B lymphoma); experiment: in vitro cytotoxicity on Raji B lymphoma line; format: cell-based, human; details: Homo sapiens, Raji; Table 2; unit inferred
Excerpt: as §1

[6] = determination of the lethal dose 50 (LD50) in the mouse; format: in vivo
[7] = in vivo; details: rat, iv, 5 mg/kg
Description: (§2) Methods of assaying compounds EAPB0203, EAPB0503 and EAPB0603 by high performance liquid chromatography and detection by mass spectrometry (LC/ESI-MS) were developed and validated in human and rat plasmas. Pre-treatment of the samples consists of a liquid solid extraction preceded by precipitation of plasma proteins in acid medium. The chromatographic column used is C8 Zorbax eclipse XDB and the mobile phase (gradient) a mixture of acetonitrile and formate buffer (pH 3) (flow rate, 0.8 ml/min). The […] from 92 to 113%. The extraction coefficients are higher than 72%. The quantification limit is 5 μg/l for all analytes. Stability tests of the compounds in the matrices were also carried out. These methods were used to determine the pharmacokinetic parameters of compounds EAPB0203, EAPB0503 and EAPB0603 in the rat. The lethal doses 50% of compounds EAPB0203 and EAPB0503 are respectively 14.8 and 7.6 mg/kg.

[8] = lethal doses 50% reported in the pharmacokinetic study; format: in vivo; details: species and route not stated in the sentence (rat study)
Description: as §2

[9] = test system: HTLV-I-positive human T lines (HuT-102 and C8166, and MT2); experiment: cell growth of HTLV-I-positive human T lines (CellTiter 96, trypan blue exclusion); format: cell-based; details: 1 to 10 μM, 24-96 h
Description: (§3) FIG. 2: HTLV-I-positive and HTLV-I-negative malignant human cell lines are sensitive to EAPB0203, but activated or inactivated normal T lymphocytes are resistant. Effects of EAPB0203 on the growth of human T lines not infected by HTLV-I (CEM, Jurkatt, Molt-4 and HuT-78), HTLV-I-positive human T lines (HuT-102 and C8166, and MT2), and normal lymphocytes at rest or activated by PHA. The activated normal PBMC were supplemented with 2% PHA. EAPB0203 was added at the concentrations indicated in mole/l for 24-96 h. Cell growth is analyzed with the “CellTiter 96®” nonradioactive cell growth kit. The results are expressed as a percentage of the control (0.1% DMSO) and represent the mean of the results obtained in three independent experiments.
(§4) The in vitro activity of EAPB0203 on adult T-cell leukemia (ATL) transformed by retrovirus HTLV-I (HuT-102, MT2 . . . ) and malignant HTLV-I-negative T-cells (CEM, Jurkatt . . . ) was evaluated. Initially, the effect of EAPB0203 on cell growth of these lines was evaluated by two techniques, the nonradioactive “CellTiter 96®” cell growth kit and the trypan blue exclusion method.

[10] = test system: human T lines not infected by HTLV-I (CEM, Jurkatt, Molt-4 and HuT-78); experiment: cell growth of human T lines not infected by HTLV-I (CellTiter 96, trypan blue exclusion); format: cell-based; details: 1 to 10 μM, 24-96 h
Description: as §3, §4

[11] = test system: leukaemic cells derived from two patients with ATL; experiment: cell proliferation of leukaemic cells derived from patients with ATL; format: cell-based, human
[12] = test system: normal lymphocytes activated or not activated by PHA; experiment: growth of normal lymphocytes at rest or activated by PHA; format: cell-based, human; details: two healthy subjects
Description: as §3, §4

[13] = test system: CEM, HuT-102, MT2, and Jurkatt cells; experiment: cell cycle analysis by flow cytometry (propidium iodide); format: cell-based, human
Description: (A) Effects of EAPB0203 on the distribution of the cell cycle of CEM, HuT-102, MT2, and Jurkatt cells. The cells treated by EAPB0203 were marked with propidium iodide ([…]) and analysis of the cellular cycle was carried out by FACScan flow cytometry. (b) The pre-G1 percentage represents the apoptotic cells. (c) The cells in cycle, the sum of phases (S+G2/M), are represented as a percentage of non-apoptotic cells. The results represent two independent experiments.
The mechanisms of inhibition of cell proliferation caused by EAPB0203 in the cell lines studied were determined by flow cytometry. This study evaluated the distribution of cells in the various phases of the cell cycle. […] This pre-G0/G1 peak corresponds to cells whose DNA content is decreased by loss of cleaved DNA fragments during cell death (FIG. 3).

[14] = test system: CEM and HuT-102 cells; HuT-102 and MT2 cells; experiment: protein expression by western blot (caspases, Bcl-2 family, cell cycle regulators); format: cell-based, human
Excerpt: Proteinic cell extracts were obtained after various treatments and evaluation of the expression of certain proteins was studied by western blot.
Activation of the mitochondrial route is controlled by members of the Bcl-2 family. […] In the cell lines infected or not infected by HTLV-I, the effect of EAPB0203 on regulators of the cell cycle is studied.

[15] = test system: treated cell lines; experiment: mitochondrial route of apoptosis (Rhodamine 123 transmembrane potential, cytochrome C localization); format: cell-based, human
Excerpt: Mitochondria play a central role in apoptotic mechanisms. The first detectable cellular disturbance during the apoptotic process is a reduction in mitochondrial transmembrane potential.
Indeed, activation of the intrinsic mitochondrial route in the cells studied is shown.

[16] = A375, comparison of IC50 values

In the case of `CNc1nc2ccccc2n2c(CCc3ccccc3)cnc12` [EAPB0203, N-methyl-1-(2-phenylethyl)imidazo[1,2-a]quinoxalin-4-amine], the “activity times higher than that of fotemustine” value [1, 16] is reported as 110 times, the “activity times higher than that of imiquimod” value [1, 16] is reported as 50 times and the IC50 ([1]; A375 melanoma line, Table 1, IC50 and standard deviation, read-out: IC50) is reported as 1570 nM. For the same molecule, the IC50 ([1]; Table 2, unit inferred, read-out: IC50 A375) was 1570 ± 560 nM, the IC50 [2] was 2580 ± 400 nM and the IC50 [3] was 1080 ± 460 nM. For the same molecule, the IC50 [4] was 4120 ± 670 nM, the IC50 [5] was 6230 ± 60 nM and the “apparent toxicity after 48 h at the highest doses” value [6] was “did not display any apparent toxicity”. For the same molecule, the LD50 at 48 h ([6]; in vivo, doses 30, 300 and 450 mg/kg, 48 h) was over 450 mg/kg, the Vd [7] was 10.6 L/kg and the “area under the curve of plasma concentrations” value [7] was 870 ng·h/mL. For the same molecule, the clearance [7] was 48.3 mL/min/kg, the half-life [7] was 2.6 h and the “lethal doses 50%” value [8] was 14.8 mg/kg. For the same molecule, the “growth of ATL cells (HTLV-I-positive)” value [9] was “sensitive; also recorded: progressive, dose-dependent inhibition”, the “growth of malignant T-cells not associated with HTLV-I” value [10] was “sensitive; also recorded: progressive, dose-dependent inhibition” and the “cell proliferation of leukaemic cells from ATL patients” value [11] was “induced inhibition of cell proliferation”. For the same molecule, the “growth of normal lymphocytes” value [12] was “completely resistant”, the pre-G0/G1 apoptotic population [13] was “presence of a pre-G0/G1 apoptotic population” and the “distribution of cells in the phases of the cell cycle” value ([13]; propidium iodide) was “induces the termination of the cell cycle in phase G2/M; also recorded: progressive accumulation of cells in phase G2”. The “caspases (cleavage of PARP, procaspase-3, -8, -9)” value ([14]; CEM and HuT-102 cells, western blot) was “activation of caspases”, the “expression of proteins p21 and p53” value ([14]; HuT-102 and MT2 cells (HTLV-I-positive)) was “significant increase” and the “apoptosis under co-treatment by caspase inhibitor zVAD” value ([14]; co-treatment with zVAD) was “partial protection”. For the same molecule, the “expression of IAP-1 proteins and bcl-xL” value ([14]; western blot) was “significant reduction”, the mitochondrial transmembrane potential ([15]; Rhodamine 123, flow cytometry) was “drop in the mitochondrial transmembrane potential” and the “sub-cellular localization of cytochrome C” value ([15]; treated cell lines) was “presence of cytochrome C in the cytoplasm”.
